Data on eight molecules can be found in publication PMC5907918 (Biochemistry, 2017).

Assay [1] concerns the target T1, human Sts-1HP (Homo sapiens, UniProt Q8TF42). In words: Inhibition of Sts-1HP phosphatase activity. To be noted: known phosphatase inhibitors tested. It counts as biochemical.
The subject of assay [2] is PTP-1B. To be noted: cited from earlier work.
The target in assay [3] is histidine phosphatase domain of human Sts-1 (Sts-1HP) (human) (UniProt Q8TF42). In words: crystal structure.
Assay [4] concerns the target T2, human Sts-2HP (Homo sapiens, UniProt P57075).
T2 sequence (P57075 393-657): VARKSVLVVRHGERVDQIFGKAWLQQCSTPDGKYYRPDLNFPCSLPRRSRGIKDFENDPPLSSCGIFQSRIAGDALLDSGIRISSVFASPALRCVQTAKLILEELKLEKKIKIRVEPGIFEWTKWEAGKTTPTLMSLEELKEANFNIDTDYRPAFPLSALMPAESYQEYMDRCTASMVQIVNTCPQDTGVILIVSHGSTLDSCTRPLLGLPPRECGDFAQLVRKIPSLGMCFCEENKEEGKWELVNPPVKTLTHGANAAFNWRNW
As to the kind of experiment: Steady state kinetics of phosphatase substrates, human Sts-2HP. To be noted: substrate as labelled, 298 K. It counts as biochemical.

Assay [5] addresses T1, human Sts-1HP. As to the kind of experiment: Steady state kinetics of phosphatase substrates, human Sts-1HP. Format: biochemical. Particulars: substrate as labelled, 298 K.
For assay [6], the target named is Full-length Sts-1 (Homo sapiens, UniProt Q8TF42). As to the kind of experiment: Steady state kinetics of phosphatase substrates, full-length Sts-1. It counts as biochemical. To be noted: substrate as labelled, 298 K.
Sequence of Full-length Sts-1 (Q8TF42 whole entry): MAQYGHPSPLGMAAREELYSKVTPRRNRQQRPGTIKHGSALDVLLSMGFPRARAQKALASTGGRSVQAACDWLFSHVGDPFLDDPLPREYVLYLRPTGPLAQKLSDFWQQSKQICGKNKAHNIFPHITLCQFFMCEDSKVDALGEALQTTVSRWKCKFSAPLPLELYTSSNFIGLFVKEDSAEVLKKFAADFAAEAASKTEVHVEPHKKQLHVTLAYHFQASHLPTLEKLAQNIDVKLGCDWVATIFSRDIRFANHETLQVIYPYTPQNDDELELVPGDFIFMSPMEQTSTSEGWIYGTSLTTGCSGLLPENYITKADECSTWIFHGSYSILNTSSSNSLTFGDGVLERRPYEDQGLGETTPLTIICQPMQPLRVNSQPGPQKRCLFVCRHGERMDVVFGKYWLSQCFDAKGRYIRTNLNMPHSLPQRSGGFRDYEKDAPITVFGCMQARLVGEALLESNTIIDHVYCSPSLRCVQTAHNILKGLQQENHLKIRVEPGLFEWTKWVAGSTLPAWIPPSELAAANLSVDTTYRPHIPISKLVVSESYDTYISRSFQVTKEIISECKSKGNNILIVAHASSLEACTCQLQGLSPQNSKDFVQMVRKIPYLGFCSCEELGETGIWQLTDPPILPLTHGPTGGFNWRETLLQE

T1 sequence (Q8TF42 380-647): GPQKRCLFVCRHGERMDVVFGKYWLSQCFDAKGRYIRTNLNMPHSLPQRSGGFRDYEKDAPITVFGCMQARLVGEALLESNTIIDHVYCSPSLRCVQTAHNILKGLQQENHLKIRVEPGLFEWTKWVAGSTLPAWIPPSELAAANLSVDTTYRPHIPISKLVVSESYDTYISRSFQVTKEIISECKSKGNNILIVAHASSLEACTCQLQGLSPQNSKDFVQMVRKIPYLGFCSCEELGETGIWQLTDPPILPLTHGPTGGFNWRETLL

As for `O=C1C(=NNc2ccc(S(=O)(=O)O)cc2)C(c2ccc([N+](=O)[O-])cc2)=NN1c1ccccc1` [PHPS1, 4-[2-[1,5-dihydro-3-(4-nitrophenyl)-5-oxo-1-phenyl-4H-pyrazol-4-ylidene]hydrazinyl]-benzenesulfonic acid], the “inhibition of Sts-1HP phosphatase activity (in words)” value (from here on “inhibition”) in assay [1] is reported as “potent competitive inhibitor”. For the same molecule, the IC50 in assay [2] is 19 µM.

In the case of `Nc1ccc(S(=O)(=O)O)cc1` [Sulfanilic acid], the “inhibition” value in assay [1] is recorded as “modest inhibitor”.

In assay [3], “histidine phosphatase domain of human Sts-1 (Sts-1HP) (from UniProt Q8TF42 369-636) (domain or fragment)” displayed a stoichiometry N of 2.

In the case of `O=P(O)(O)OC(CO)CO` [β-glycerophosphate], the “inhibition” value in assay [1] is recorded as “did not show any observable level of inhibition”.

Consider `CN(N=O)c1ccc(O)c(O)c1` [Methyl-dephostatin, methyl-3,4-dephostatin], for which the “inhibition” value in assay [1] is “not affected”. In assay [2], the IC50 was 3.5 µM.

`Cc1cc(=O)oc2c(F)c(OP(=O)(O)O)c(F)cc12` [DifMUP, 6,8-Difluoro-4-Methylumbelliferyl Phosphate]: the Km is 850 ± 230 µM in assay [4] and 2 µM in assay [5]. Also, the kcat in assay [4] worked out at 4.92 ± 0.76 s⁻¹; in assay [5], 100.68 s⁻¹.

Regarding `COc1ccc2c(c1)Oc1cc(OP(=O)(O)O)ccc1C21OC(=O)c2ccccc21` (stereo not drawn) [OMFP, 3-O-Methylfluorescein phosphate], the Km in assay [4] was found to be 1070 ± 240 µM; in assay [5], 190 ± 30 µM. Also, the kcat in assay [4] amounted to 5.86 ± 0.78 s⁻¹; in assay [5], 786.1 ± 52.4 s⁻¹.

For the molecule `O=[N+]([O-])c1ccc(OP(=O)(O)O)cc1` [pNPP, para-nitrophenyl phosphate], the Km is 5610 ± 1690 µM in assay [4], 3310 ± 270 µM in assay [6] and 2640 ± 480 µM in assay [5]. The kcat worked out at 1.23 ± 0.15 s⁻¹ in assay [4], 158.6 ± 6.48 s⁻¹ in assay [6] and 13.62 ± 0.63 s⁻¹ in assay [5].
